Assay results taken from patent US20050074819A1, “Screening method of drug for treatment of neuropathic pain” (JAPAN HEALTH SCIENCES FOUNDATION, priority 2003, published 2005).

Key:
P2X4Rs = target: T1, P2X4Rs (Rattus norvegicus, UniProt P51577); assay: Intracellular Ca2+ imaging (fura-2) of ATP-evoked response in primary cultured microglia; format: cell-based; details: for ATP-evoked increase in 340/360 ratio (fura-2): 10 min before and during ATP (50 μM, 10 s)
T1 construct: mixed glial culture was prepared from neonatal Wistar rats; endogenous in cells; host or cells: primary cultured microglia from neonatal Wistar rats
T1 sequence (P51577 1-388): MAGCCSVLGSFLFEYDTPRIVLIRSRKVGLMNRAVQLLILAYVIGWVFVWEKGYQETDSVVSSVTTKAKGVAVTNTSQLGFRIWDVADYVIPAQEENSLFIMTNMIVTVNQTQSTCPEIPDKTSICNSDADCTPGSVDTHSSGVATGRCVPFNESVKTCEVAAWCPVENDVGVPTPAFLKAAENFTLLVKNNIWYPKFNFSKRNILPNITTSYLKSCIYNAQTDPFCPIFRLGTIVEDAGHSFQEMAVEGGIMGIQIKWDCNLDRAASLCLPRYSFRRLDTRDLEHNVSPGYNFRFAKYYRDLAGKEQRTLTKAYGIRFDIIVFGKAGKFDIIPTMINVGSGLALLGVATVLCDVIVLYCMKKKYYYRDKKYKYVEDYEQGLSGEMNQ
Excerpt: As P2X4Rs are reported to be highly permeable to Ca^2+ (Khakh, B. S. et al. International union of pharmacology. XXIV. Current status of the nomenclature and properties of P2X receptors and their subunits. Pharmacol Rev 53, 107-118, 2001), we investigated whether the P2X4Rs on these microglia were functional by applying the agonist ATP and monitoring the level of intracellular Ca^2+ ([Ca^2+]i) in individual cells using the Ca^2+-sensitive fluorescent dye fura-2.
The detailed procedures are as follows. Rat primary cultured microglia were prepared according to the method described previously (Nakajima, K. et al. Identification of elastase as a secretory protease from cultured rat microglia. J Neurochem 58, 1401-1408, 1992). In brief, mixed glial culture was prepared from neonatal Wistar rats and maintained for 10-16 days in DMEM with 10% fetal bovine serum. Microglia were obtained as floating cells over the mixed glial culture. The floating cells were collected by a gentle shake and transferred to appropriate dishes or glasses, and then the microglia attached to them were used for RT-PCR, intracellular Ca^2+ imaging, immunocytochemistry.

normal rats = assay: Tactile allodynia in normal rats after intrathecal administration of ATP-stimulated cultured microglia; format: in vivo, rat
Protocol: (§1) We used the spinal nerve injury model (Kim, S. H. & Chung, J. M. An experimental model for peripheral neuropathy produced by segmental spinal nerve ligation in the rat. Pain 50, 355-363. (1992)) with some modifications; a unilateral L5 spinal nerve of male Wistar rats was tightly ligated and cut just distal to the ligature. The mechanical allodynia was assessed in naive and nerve-injured rats using calibrated von Frey filaments (0.4-15.1 g). Rats were injected intrathecally with P2XR antagonists, TNP-ATP and PPADS (Sigma-RBI), and antisense and mismatch ODN. For the experiments in FIG. 5, the cultured microglia (see Supplementary Information 1) that had been pre-incubated with or without ATP (50 μM) were injected intrathecally in normal rats. Full details of experimental methods are as follows.
(§2) A unilateral L5 spinal nerve of male Wistar rats was tightly ligated and cut just distal to the ligature. To assess the mechanical allodynia, the calibrated von Frey filaments (0.4-15.1 g) were applied to the plantar surface of the hindpaw from below the mesh floor. The 50% paw withdrawal threshold was determined using the up-down method (Chaplan, S. R., Bach, F. W., Pogrel, J. W., Chung, J. M. & Yaksh, T. L. Quantitative assessment of tactile allodynia in the rat paw. J Neurosci Methods 53, 55-63, 1994). Rats were implanted with a PE-10 polyethylene tube to the lumber enlargement (Yaksh, T. L., Jessell, T. M., Gamse, R., Mudge, A. W. & Leeman, S. E. Intrathecal morphine inhibits substance P release from mammalian spinal cord in vivo. Nature 286, 155-157, 1980) for intrathecal injection of P2XR antagonists [2′,3′-O-(2,4,6-trinitrophenyl)adenosine 5′-triphosphate (TNP-ATP) (Sigma-RBI) and pyridoxalphosphate-6-azophenyl-2′,4′-disulphonic acid (PPADS) (Sigma-RBI)], P2X4R antisense or mismatch ODN. We confirmed that PPADS and TNP-ATP used in the present study show biological activity to inhibit effects of α,β-methylene ATP in vitro and in vivo. The 16-base antisense ODN endcapped with phosphorothioate linkages were designed according to the primary sequence of the rat P2X4R cDNA (X87763). The sequence of the P2X4R antisense and mismatch ODN was 5′-CAGCCCGCCATGGCTC-3′ (SEQ ID NO: 3) and 5′-ACCGCCGCCAGTGCCT-3′ (SEQ ID NO: 4), respectively. The mismatch ODN served as a control. Rats were injected intrathecally with antisense ODN (5 nmol 10 μl^−1) and mismatch ODN (5 nmol 10 μl^−1) using a 25-μl Hamilton syringe with 28-gauge needle once a day from day 0 (immediately after nerve injury) to day 6. […] After the test, to quantify the levels of P2X4R protein in the spinal cord in both groups using Western blot analysis, the membrane fraction from the ipsilateral spinal cord segments L4-L6 was prepared. […]

[1] = system: effects of α,β-methylene ATP; assay: Check of biological activity against effects of α,β-methylene ATP in vitro and in vivo
Protocol: as §2, with “vivo.” for “vivo. The 16-base antisense ODN endcapped with phosphorothioate linkages were designed according to the primary sequence of the rat P2X4R cDNA (X87763). The sequence of the P2X4R antisense and mismatch ODN was 5′-CAGCCCGCCATGGCTC-3′ (SEQ ID NO: 3) and 5′-ACCGCCGCCAGTGCCT-3′ (SEQ ID NO: 4), respectively. The mismatch ODN served as a control. Rats were injected intrathecally with antisense ODN (5 nmol 10 μl^−1) and mismatch ODN (5 nmol 10 μl^−1) using a 25-μl Hamilton syringe with 28-gauge needle once a day from day 0 (immediately after nerve injury) to day 6.”

[2] = system: male Wistar rats with L5 spinal nerve injury; assay: Tactile allodynia after L5 spinal nerve injury, von Frey paw withdrawal threshold, intrathecal injection; format: in vivo, rat; details: for paw withdrawal threshold 45 min after injection: ipsilateral hindpaw
Protocol: as §1
A unilateral L5 spinal nerve of male Wistar rats was tightly ligated and cut just distal to the ligature. To assess the mechanical allodynia, the calibrated von Frey filaments (0.4-15.1 g) were applied to the plantar surface of the hindpaw from below the mesh floor. The 50% paw withdrawal threshold was determined using the up-down method (Chaplan, S. R., Bach, F. W., Pogrel, J. W., Chung, J. M. & Yaksh, T. L. Quantitative assessment of tactile allodynia in the rat paw. J Neurosci Methods 53, 55-63, 1994). Rats were implanted with a PE-10 polyethylene tube to the lumber enlargement (Yaksh, T. L., Jessell, T. M., Gamse, R., Mudge, A. W. & Leeman, S. E. Intrathecal morphine inhibits substance P release from mammalian spinal cord in vivo. Nature 286, 155-157, 1980) for intrathecal injection of P2XR antagonists [2′,3′-O-(2,4,6-trinitrophenyl)adenosine 5′-triphosphate (TNP-ATP) (Sigma-RBI) and pyridoxalphosphate-6-azophenyl-2′,4′-disulphonic acid (PPADS) (Sigma-RBI)], P2X4R antisense or mismatch ODN. We confirmed that PPADS and TNP-ATP used in the present study show biological activity to inhibit effects of α,β-methylene ATP in vitro and in vivo. The 16-base antisense ODN endcapped with phosphorothioate linkages were designed according to the primary sequence of the rat P2X4R cDNA (X87763). The sequence of the P2X4R antisense and mismatch ODN was 5′-CAGCCCGCCATGGCTC-3′ (SEQ ID NO: 3) and 5′-ACCGCCGCCAGTGCCT-3′ (SEQ ID NO: 4), respectively. The mismatch ODN served as a control. Rats were injected intrathecally with antisense ODN (5 nmol 10 μl^−1) and mismatch ODN (5 nmol 10 μl^−1) using a 25-μl Hamilton syringe with 28-gauge needle once a day from day 0 (immediately after nerve injury) to day 6. On day 7, paw withdrawal threshold of antisense ODN- and mismatch ODN-treated rats were tested. After the test, to quantify the levels of P2X4R protein in the spinal cord in both groups using Western blot analysis, the membrane fraction from the ipsilateral spinal cord segments L4-L6 was prepared. For the experiments in which cultured microglia were administered intrathecally, the cultured microglia were pre-incubated with ATP (50 μM) or PBS for 1 hr at 37° C. immediately prior to administration. Microglia with their supernatant were injected intrathecally in normal rats and paw withdrawal threshold was tested 1, 3 and 5 hr later. TNP-ATP (10 μM) was preincubated with microglia starting 10 min prior to ATP application.

P2X4R protein [3] = assay: Western blot of P2X4R protein in spinal cord membrane fraction after intrathecal ODN treatment; format: in vivo, rat; details: 5 nmol intrathecal once a day for 7 days, immunoblot
Protocol: A unilateral L5 spinal nerve of male Wistar rats was tightly ligated and cut just distal to the ligature. To assess the mechanical allodynia, the calibrated von Frey filaments (0.4-15.1 g) were applied to the plantar surface of the hindpaw from below the mesh floor. The 50% paw withdrawal threshold was determined using the up-down method (Chaplan, S. R., Bach, F. W., Pogrel, J. W., Chung, J. M. & Yaksh, T. L. Quantitative assessment of tactile allodynia in the rat paw. J Neurosci Methods 53, 55-63, 1994). […] After the test, to quantify the levels of P2X4R protein in the spinal cord in both groups using Western blot analysis, the membrane fraction from the ipsilateral spinal cord segments L4-L6 was prepared. […]
The membrane fraction from spinal cord segments L4-L6 ipsilateral or contralateral to the nerve injury was used. […] The blots were detected using a chemiluminescence method (ECL system; Amersham) and exposed to autoradiography films (Hyperfilm-ECL; Amersham).

[4] = system: microglia in the dorsal horn; assay: Number of microglia and OX42 immunofluorescence in dorsal horn after ODN treatment; format: in vivo, rat; details: 5 nmol intrathecal once a day for 7 days
Excerpt: (§3) Transverse L5 spinal cord sections (30 μm) were cut and processed for immunohistochemistry using P2X4R antibody (Alomone). Markers of microglia, OX42 (Chemicon) and iba1 (gifted from S. Kohsaka); astrocytes, GFAP (Boehringer Mannheim); spinal cord neurones, NeuN (Chemicon) and MAP2 (Chemicon) were used to identify the type of P2X4R-positive cells. To assess immunofluorescence staining of cells quantitatively, we measured the immunofluorescence intensity of the P2X4R or OX42 as the average pixel intensity within each cell. Full details of experimental methods are as follows.
(§4) Transverse L5 spinal cord sections (30 μm) were incubated for 2 hr at room temperature in a blocking solution (3% normal goat serum) and then incubated for 48 hr at 4° C. in the primary antibody for P2X4R (anti-P2X4 receptor, 1:500, Alomone). […] The spinal cord sections were analysed using a MicroRadiance Confocal Imaging System (Bio-Rad) and an Olympus IX70 microscope equipped for epifluorescence. […] Microglia, as identified by OX42 immunofluorescence were outlined, and the immunofluorescence intensity (using a 9-bit scale) of the P2X4R or OX42 was determined as the average pixel intensity within each cell. Background fluorescence intensity was determined and was subtracted from the value obtained for microglia.

P2X4R protein [5] = assay: Immunofluorescence intensity of P2X4R protein in individual dorsal horn microglia after ODN treatment; format: in vivo, rat; details: 5 nmol intrathecal once a day for 7 days
Excerpt: as §3, §4

nociceptive behaviours = details: intrathecal 30 or 100 nmol; cited from earlier work
[6] = system: rat model of postoperative pain; details: administration at the incision area, effective only before surgical operation; cited from earlier work
[7] = 30 nmol intrathecal 5 hr after ATP-stimulated microglia
[8] = 5 nmol intrathecal once a day for 7 days, tested day 7

## 2′,3′-O-(2,4,6-Trinitrophenyl) Adenosine 5′-Triphosphate [TNP-ATP]
P2X4Rs; 10 μM
  ATP-evoked increase in 340/360 ratio (fura-2): suppressed
Normal rats; [7]
  effect on allodynia caused by ATP-stimulated microglia: reversed the allodynia
  time of peak increase in paw withdrawal threshold after injection: 45 to 75 min
Normal rats; 10 μM together with ATP (50 μM) in the microglia pre-incubation
  decrease in paw withdrawal threshold caused by ATP-stimulated microglia: prevented
[1]
  biological activity on effects of α,β-methylene ATP: inhibit
[2]; 30 nmol intrathecal, 45 min after injection
  paw withdrawal threshold on the side contralateral to the nerve injury: 14.3 ± 0.8 g
[2]; 30 nmol intrathecal, nerve-injured rats
  time of peak increase in paw withdrawal threshold after injection: about 45 min
[2]; day 7, 30 nmol intrathecal, at peak of effect
  effect on tactile allodynia: reversed
[2]; day 7, intrathecal
  dose producing half-maximum effect on paw withdrawal threshold: 8.1 nmol
[2]; day 7 after nerve injury, 30 nmol intrathecal
  paw withdrawal threshold 45 min after injection: 14.6 ± 0.5 g
[2]; day 14, 30 nmol intrathecal, 45 min after injection
  recovery of paw withdrawal threshold: 73%
[2]; day 14, intrathecal
  dose producing half-maximum effect on paw withdrawal threshold: 15.5 nmol
[2]; day 14 after nerve injury, 30 nmol intrathecal
  paw withdrawal threshold 45 min after injection: 11.6 ± 1.3 g
[2]; intrathecal
  motor behaviour following administration: no alteration

## 5′-ACCGCCGCCAGTGCCT-3′ (DNA, backbone and methylation of C not given here; end-capped with phosphorothioate linkages) [mismatch ODN]
[2]; [8]
  paw withdrawal threshold compared with untreated controls: not different

## 5′-CAGCCCGCCATGGCTC-3′ (phosphorothioate end caps, number of linkages not given here) [P2X4R antisense ODN]
P2X4R protein [3]
  decrease of P2X4R protein level in spinal cord homogenates versus mismatch ODN: 32.0±4.8%
[2]; [8]
  nerve injury-induced decrease in paw withdrawal threshold compared with mismatch ODN: significantly less
  recovery of paw withdrawal threshold towards the baseline level prior to nerve injury: 47.4±8.3%
[4]
  level of OX42 immunofluorescence per individual microglia versus mismatch ODN: nor was there a difference
  number of microglia in the dorsal horn versus mismatch ODN: no difference
P2X4R protein [5]
  decrease of immunofluorescence intensity of P2X4R protein in individual microglia versus mismatch ODN: 37.1±0.2%

## Nc1ncnc2c1ncn2[C@@H]1O[C@H](COP(=O)(O)OP(=O)(O)OP(=O)(O)O)[C@@H](O)[C@H]1O [ATP, adenosine 5′-triphosphate]
P2X4Rs; agonist 50 μM, 10 s
  340/360 emission ratio for fura-2 ([Ca2+]i): transient increase
Normal rats; normal rats, ATP 50 μM, tested 1, 3 and 5 hr later
  paw withdrawal threshold after intrathecal administration: unaffected

## Cc1nc(N=Nc2ccc(S(=O)(=O)O)cc2S(=O)(=O)O)c(COP(=O)(O)O)c(C=O)c1O [PPADS, Pyridoxalphosphate-6-azophenyl-2′,4′-disulphonic acid]
P2X4Rs; 10 μM
  ATP-evoked increase in 340/360 ratio (fura-2): unaffected
[1]
  biological activity on effects of α,β-methylene ATP: inhibit
[2]; day 7, 30 or 100 nmol intrathecal
  effect on paw withdrawal threshold: no effect
[2]; day 14, 30 or 100 nmol intrathecal
  effect on paw withdrawal threshold: no effect
Nociceptive behaviours
  nociceptive behaviours (intrathecal α,β-methylene ATP, second phase of formalin test, bee venom): suppress
[6]
  allodynia in a rat model of postoperative pain: suppressed allodynia

## CCOc1ccc(Nc2ccc(/C(=C3C=C/C(=[N+](/CC)Cc4cccc(S(=O)(=O)[O-])c4)C=C/3C)c3ccc(N(CC)Cc4cccc(S(=O)(=O)[O-])c4)cc3C)cc2)cc1.[Na+] [brilliant blue G]
P2X4Rs; 100 nM
  ATP-evoked increase in 340/360 ratio (fura-2): not altered
